Literature values in patent publication US20130030007A1, “Obesity Small Molecules” (AKRON MOLECULES GMBH, priority 2010, published 2013).
Structures can show the parent of a compound that is named as a salt. Starred links: 1 amine or outer side, 2 acyl side, 3 side chain; linkers in the order of their positions; H or OH if unused. Positions of bridges follow the written chain, without caps; N, C: chain ends. Non-standard residues stand in square brackets, D forms with d. Residues, ends and D or L forms follow the SMILES beside them. *: point of attachment. Adda = CO[C@@H](Cc1ccccc1)[C@@H](C)/C=C(C)/C=C/[C@H](N[*:1])[C@H](C)C(=O)[*:2]; dAsp(3S-Me) = C[C@H](C(=O)[*:3])[C@@H](N[*:1])C(=O)[*:2]; d(γGlu) = O=C(O)[C@@H](CCC(=O)[*:2])N[*:1]; Cbz = O=C(OCc1ccccc1)*; NMeDha = C=C(NC)C(=O)O

Tested on: human ortholog of Drosophila obesity gene
Set-up: key: O: Obesity - obesity pathway interaction; B: validated binding partner
Conditions: cited from earlier work

SMILES	Type: Type of interaction
CCCCCCCNS(=O)(=O)c1cccc2c(Cl)cccc12	B
COc1ccc(C2=N[C@@H](c3ccc(Cl)cc3)[C@@H](c3ccc(Cl)cc3)N2C(=O)N2CCNC(=O)C2)c(OC(C)C)c1 (racemic) [nutlin 3]	O
Nc1nc2[nH]cc(CCc3ccc(C(=O)N[C@@H](CCC(=O)O)C(=O)O)cc3)c2c(=O)[nH]1 [LY231514]	O
C=C1C(=O)N[C@H](C)C(=O)N[C@@H](CC(C)C)C(=O)N[C@@H](C(=O)O)[C@H](C)C(=O)N[C@@H](CCCNC(=N)N)C(=O)N[C@@H](/C=C/C(C)=C/[C@H](C)[C@H](Cc2ccccc2)OC)[C@H](C)C(=O)N[C@@H](C(=O)O)CCC(=O)N1C [MCYST-LR] (R[Adda][d(γGlu)][NMeDha][dA]L[dAsp(3S-Me)]-OH; lactam N-7)	O
CS(=O)(=O)c1cc(F)cc2c3c(n(Cc4ccc(Cl)cc4)c12)[C@@H](CC(=O)O)CC3 [MK-0524]	B
CSC[C@H]1O[C@@H](n2cnc3c(N)ncnc32)[C@H](O)[C@@H]1O [MeSAdo]	B
CCCC(C)C1(CC)C(=O)NC(=O)NC1=O (stereo not drawn) [Mebumal]	O
CC(=O)O[C@]1(C(C)=O)CC[C@H]2[C@@H]3C[C@H](C)C4=CC(=O)CC[C@]4(C)[C@H]3CC[C@@]21C [Medroxyprogesterone 17-Acetate]	B
CCCC(C)(COC(N)=O)COC(N)=O [Meprobamate]	O
CNC[C@H](O)c1cccc(O)c1 [Mesaton]	B
CN[C@@H](C)Cc1ccccc1 [Meth]	O
COc1ccc2c(c1)C13CCCCC1C(C2)N(C)CC3 (stereo not drawn) [Methorphan]	O
CSc1ncnc2c1ncn2[C@@H]1O[C@H](CO)[C@@H](O)[C@H]1O [Methylthioinosine]	B
C[C@]1(O)CC[C@H]2[C@@H]3CCC4=CC(=O)CCC4=C3C=C[C@@]21C [Metribolone]	B
c1cncnc1 [Miazine]	B
CCCOC(C(=O)OC1CCN(C)CC1)(c1ccccc1)c1ccccc1 [Mictonorm]	B
Cc1ncc2n1-c1ccc(Cl)cc1C(c1ccccc1F)=NC2 [Midazolam]	O

SMILES	Type: Type of interaction
C[C@@H]1C[C@H]2O[C@@H]2/C=C\C=C\C(=O)Cc2c(Cl)c(O)cc(O)c2C(=O)O1 [Monorden]	B
C/C=C1/C(=O)N[C@@H](C(=O)O)[C@H](C)C(=O)N[C@@H](C(C)C)C(=O)N[C@@H](/C=C/C(C)=C/[C@H](C)[C@H](Cc2ccccc2)OC)[C@H](C)C(=O)N[C@@H](C(=O)O)CCC(=O)N1C [Motuporin]	O
Cn1cnc([N+](=O)[O-])c1Sc1ncnc2nc[nH]c12 [Muran]	O
C[C@@H]1O[C@H](C[N+](C)(C)C)C[C@H]1O [Muscarine]	B
Nc1ccc(CCN2CN(c3ccccc3)C3(CCN(CCCC(=O)c4ccc(F)cc4)CC3)C2=O)cc1 [N-(4-aminophenethyl)spiroperidol]	B
CC(NC(N)=O)c1cc2ccccc2s1 (stereo not drawn) [N-dehydroxyzileuton]	O
O=C1CC(=O)N(c2ccccc2)c2cc(Cl)ccc2N1 [N-desmethylclobazam]	B
COc1ccccc1N1CCN(CC(C(=O)NC(C)(C)C)c2ccccc2)CC1 (stereo not drawn) [N-tert-butyl-3-[4-(2-methoxyphenyl)piperazin-1-yl]-2-phenylpropanamide]	B
CCCC(=O)[O-].[Na+] [NABU]	O
CN[C@H](CC(=O)O)C(=O)O [NMDA]	O
CCN(CC)CCCC(C)Nc1nc(C)cc(Nc2ccc3nc(C)cc(N)c3c2)n1 (stereo not drawn) [NSC 23766]	B
Nc1nc(OCC2CCCCC2)c2[nH]cnc2n1 [NU2058]	B
NS(=O)(=O)c1ccc(Nc2nc(OCC3CCCCC3)c3[nH]cnc3n2)cc1 [NU6102]	B
Nc1ncnc2c1c(-c1cccc(OCc3ccccc3)c1)cn2C1CC(CN2CCC2)C1 (stereo not drawn) [NVP-AEW541]	O
NC[C@@H]1O[C@H](O[C@H]2[C@@H](O)[C@H](O[C@@H]3[C@@H](O)[C@H](N)C[C@H](N)[C@H]3O[C@H]3O[C@H](CN)[C@@H](O)[C@H](O)[C@H]3N)O[C@@H]2CO)[C@H](N)[C@@H](O)[C@@H]1O [Neomycin]	B
Oc1ccc2c3c1O[C@H]1c4[nH]c5c(c4C[C@@]4(O)[C@@H](C2)N(CC2CC2)CC[C@]314)C[C@@]1(O)[C@H]2Cc3ccc(O)c4c3[C@@]1(CCN2CC1CC1)[C@H]5O4 [Norbinaltorphimine]	O

Same assay, conditions: interaction of the small molecule with the human ortholog(s) / Drosophila gene(s) listed in the same table line; cited from earlier work

SMILES	Type: Type of interaction
O=c1c(O)c(-c2ccc(O)cc2O)oc2cc(O)cc(O)c12 [MORIN]	O
COc1ccc(Cl)cc1C(=O)NCCc1ccc(S(=O)(=O)NC(=O)NC2CCCCC2)cc1 [Malix]	B
CCC(=O)O[C@@H]1CC(=O)O[C@H](C)C/C=C/C=C/[C@H](O)[C@H](C)C[C@H](CC=O)[C@H](O[C@@H]2O[C@H](C)[C@@H](O[C@H]3C[C@@](C)(O)[C@@H](OC(=O)CC)[C@H](C)O3)[C@H](N(C)C)[C@H]2O)[C@H]1OC [Medemycin]	O
COc1ccc2[nH]cc(CCNC(C)=O)c2c1 [Melatol]	B
CC12CC3CC(C)(C1)CC(N)(C3)C2 [Memantine]	B
CC(C)=CCC/C(C)=C/CC/C(C)=C/CC/C(C)=C/CC1=C(C)C(=O)c2ccccc2C1=O [Menatetrenone]	O
CCC1(c2ccccc2)NC(=O)N(C)C1=O (stereo not drawn) [Mephenytoin]	B
COc1c2occc2cc2ccc(=O)oc12 [Methoxsalen]	B
CC(C)(C(=O)c1cccnc1)c1cccnc1 [Metopiron]	O
CC#C[C@]1(O)CC[C@H]2[C@@H]3CCC4=CC(=O)CCC4=C3[C@@H](c3ccc(N(C)C)cc3)C[C@@]21C [Mifepristone]	B
NC(Cn1ccc(=O)c(O)c1)C(=O)O (stereo not drawn) [Mimosine]	O
O=C1c2c(O)ccc(O)c2C(=O)c2c(NCCNCCO)ccc(NCCNCCO)c21 [Mitoxantrone]	O
CCOC(=O)[N-]c1cn(N2CCOCC2)n[o+]1 [Molsidomine]	B
CC[C@@]1([C@@H]2O[C@@H]([C@H]3O[C@@](O)(CO)[C@H](C)C[C@@H]3C)C[C@@H]2C)CC[C@H]([C@]2(C)CC[C@]3(C[C@H](O)[C@@H](C)[C@@H]([C@@H](C)[C@@H](OC)[C@H](C)C(=O)O)O3)O2)O1 [Monensin]	O
O=C(Nc1cc2ccccc2cn1)c1ccccc1NCc1ccncc1 [N-3-isoquinolinyl-2-((4-pyridinylmethyl)amino)benzamide]	O
Nc1ccc(N2C(=O)C=CC2=O)cc1 [N-(4-aminophenyl)maleimide]	O
N#Cc1cccc2sc(C(=O)NC(=N)N)cc12 [N-(4-cyano-benzo (b)thiophene-2-carbonyl)guanidine]	O
C[C@H](NC(CCCCCCCN)C(=O)O)C(=O)N1CCC[C@H]1C(=O)O (stereo partly drawn) [N-(8-amino-1-carboxyoctyl)-alanyl-proline]	O
O=C[C@@H]1CCCN1C(=O)[C@@H]1CCCN1C(=O)OCc1ccccc1 [N-benzyloxycarbonylprolyl-prolinal] (Cbz-Pro-Pro-aldehyde)	O
CCN1C(=O)C=CC1=O [N-ethylmaleimide]	O

SMILES	Type: Type of interaction
C#CCOc1ccccc1CCCCCC(=O)NS(C)(=O)=O [N-methylsulfonyl-6-(2-propargyloxyphenyl)hexanamide]	O
COc1ccccc1N1CCN(CCCCN2C(=O)c3ccccc3C2=O)CC1 [NAN-190 hydrobromide]	B
O=C1C[C@@H](c2ccc(O)cc2)Oc2cc(O)cc(O)c21 [NARIGENIN]	O
O=C(O)C[C@H](O)C[C@H](O)/C=C/c1c(C2CC2)nc2ccccc2c1-c1ccc(F)cc1 [NK 104]	B
CNC(=O)[C@@H](Cc1ccccc1)N(C)C(=O)[C@@H](Cc1ccc2ccccc2c1)N(C)C(=O)/C=C/CC(C)(C)N [NN 703]	B
O=c1c(-c2ccc(O)cc2)coc2cc(O)cc(O)c12 [NPI 031L]	B
c1ccc2ccccc2c1 [Naftalen]	B
C=CCN1CC[C@]23c4c5ccc(O)c4O[C@H]2C(=O)CC[C@@]3(O)[C@H]1C5 [Naloxone]	O
O=C1CC[C@@]2(O)[C@H]3Cc4ccc(O)c5c4[C@@]2(CCN3CC2CC2)[C@H]1O5 [Naltrexone]	B
c1ccc2c(CC3=NCCN3)cccc2c1 [Naphazoline]	O
CCc1nn(CCCN2CCN(c3cccc(Cl)c3)CC2)c(=O)n1CCOc1ccccc1 [Nefazodone]	O
Cc1c(O)cccc1C(=O)N[C@@H](CSc1ccccc1)[C@H](O)CN1C[C@H]2CCCC[C@H]2C[C@H]1C(=O)NC(C)(C)C [Nelfinavir]	O
Cc1ccnc2c1NC(=O)c1cccnc1N2C1CC1 [Nevirapine]	O
NC(=O)c1cccnc1 [Niacinamide]	B
O=C(OCC(COC(=O)c1cccnc1)(COC(=O)c1cccnc1)COC(=O)c1cccnc1)c1cccnc1 [Niceritrol]	O
CO[C@@H]1C[C@@H](C[C@H]2CC[C@H](C)[C@H]([C@@H](C)C(=O)O)O2)O[C@]2(O[C@](C)([C@H]3CC[C@@](C)([C@@H]4O[C@@H]([C@H]5O[C@@](O)(CO)[C@H](C)C[C@@H]5C)C[C@@H]4C)O3)C[C@H]2C)[C@@H]1C [Nigericin]	O
COc1ccc(-c2cc(=O)c3c(OC)c(OC)c(OC)c(OC)c3o2)cc1OC [Nobiletin]	O
CC(Cc1ccc(O)c(O)c1)C(C)Cc1ccc(O)c(O)c1 (stereo not drawn) [Nordihydroguaiaretic Acid]	B
C#C[C@]1(O)CC[C@H]2[C@@H]3CCC4=CC(=O)CC[C@@H]4[C@H]3CC[C@@]21C [Norethindrone]	O
